According to PubChem BioAssay AID330 (DTP/NCI, 2004):
Values joined by “and” are separate entries in the source; they are usually repeats but may differ in a detail not shown here. Equal entries are not always repeated. Toxic doses and inconclusive results are not listed.

Tested on: P388 leukemia ip, CD2F1 mice, survival T/C
Assay: NCI In Vivo Anticancer Drug Screen. Data for tumor model P388 Leukemia (intraperitoneal) in CD2F1 (CDF1) mice
Details: endpoint: median survival time, higher = longer survival
How it was run: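 Mice carrying the transplanted tumor received test compound or vehicle. Survival was recorded in each group, and the value is the treated-group measurement divided by that of the vehicle-treated control group.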

[1] = dose: 25.0 mg/kg/injection, schedule: Q01DX009 (ip), vehicle: saline
[2] = dose: 50.0 mg/kg/injection, schedule: Q01DX009 (ip), vehicle: saline
[3] = dose: 100.0 mg/kg/injection, schedule: Q01DX009 (ip), vehicle: saline
[4] = dose: 100.0 mg/kg/injection, schedule: Q04DX002 (ip), vehicle: saline with Tween-80
[5] = dose: 12.5 mg/kg/injection, schedule: Q01DX005 (ip), vehicle: saline with Tween-80
[6] = dose: 25.0 mg/kg/injection, schedule: Q01DX005 (ip), vehicle: saline with Tween-80
[7] = dose: 50.0 mg/kg/injection, schedule: Q01DX005 (ip), vehicle: saline with Tween-80
[8] = dose: 60.0 mg/kg/injection, schedule: Q01DX005 (ip), vehicle: saline with Tween-80
[9] = dose: 120.0 mg/kg/injection, schedule: Q01DX005 (ip), vehicle: saline with Tween-80
[10] = dose: 240.0 mg/kg/injection, schedule: Q01DX005 (ip), vehicle: saline with Tween-80
[11] = dose: 25.0 mg/kg/injection, schedule: Q01DX009 (ip), vehicle: saline with Tween-80
[12] = dose: 50.0 mg/kg/injection, schedule: Q01DX009 (ip), vehicle: saline with Tween-80
[13] = dose: 100.0 mg/kg/injection, schedule: Q01DX009 (ip), vehicle: saline with Tween-80
[14] = dose: 200.0 mg/kg/injection, schedule: Q01DX009 (ip), vehicle: saline with Tween-80
[15] = dose: 50.0 mg/kg/injection, schedule: Q01DX005 (ip), vehicle: Klucel (hydroxypropylcellulose) (HPC)
[16] = dose: 100.0 mg/kg/injection, schedule: Q01DX005 (ip), vehicle: Klucel (hydroxypropylcellulose) (HPC)
[17] = dose: 200.0 mg/kg/injection, schedule: Q01DX005 (ip), vehicle: Klucel (hydroxypropylcellulose) (HPC)

COC(=O)/C=C/CNC(C)C
T/C (dose: 25.0 mg/kg/injection, schedule: Q01DX009 (ip), vehicle: water): 101 % of control | T/C (dose: 50.0 mg/kg/injection, schedule: Q01DX009 (ip), vehicle: water): 99 % of control | T/C (dose: 100.0 mg/kg/injection, schedule: Q01DX009 (ip), vehicle: water): 108 % of control | T/C (dose: 200.0 mg/kg/injection, schedule: Q01DX009 (ip), vehicle: water): 115 % of control | T/C (dose: 400.0 mg/kg/injection, schedule: Q01DX009 (ip), vehicle: water): 97 % of control

c1cn[nH]c1
T/C [1]: 93 % of control | T/C [2]: 101 % of control | T/C [3]: 111 % of control

C=C1CCC2C(OC(=O)C2(O)COC(C)=O)C2C(=C)C(OC(C)=O)CC12 (stereo not given)
T/C (dose: 9.38 mg/kg/injection, schedule: Q01DX005 (ip), vehicle: Klucel (hydroxypropylcellulose) (HPC)): 106 % of control | T/C (dose: 18.75 mg/kg/injection, schedule: Q01DX005 (ip), vehicle: Klucel (hydroxypropylcellulose) (HPC)): 100 % of control | T/C (dose: 37.5 mg/kg/injection, schedule: Q01DX005 (ip), vehicle: Klucel (hydroxypropylcellulose) (HPC)): 98 % of control | T/C (dose: 75.0 mg/kg/injection, schedule: Q01DX005 (ip), vehicle: Klucel (hydroxypropylcellulose) (HPC)): 100 % of control | T/C (dose: 150.0 mg/kg/injection, schedule: Q01DX005 (ip), vehicle: Klucel (hydroxypropylcellulose) (HPC)): 99 % of control

CC12CCN=C1c1ccc3cc(O)ccc3c1CC2 (stereo not given)
T/C (dose: 100.0 mg/kg/injection, schedule: Q01DX001 (sc), vehicle: steriod suspending solution): 104 % of control | T/C (dose: 200.0 mg/kg/injection, schedule: Q01DX001 (sc), vehicle: steriod suspending solution): 118 % of control | T/C (dose: 400.0 mg/kg/injection, schedule: Q01DX001 (sc), vehicle: steriod suspending solution): 100 % of control

Clc1ccc(S[As](Sc2ccc(Cl)cc2)Sc2ccc(Cl)cc2)cc1
T/C (dose: 100.0 mg/kg/injection, schedule: Q04DX002 (ip), vehicle: Klucel (hydroxypropylcellulose) (HPC)): 121 % of control | T/C (dose: 200.0 mg/kg/injection, schedule: Q04DX002 (ip), vehicle: Klucel (hydroxypropylcellulose) (HPC)): 114 % of control | T/C (dose: 400.0 mg/kg/injection, schedule: Q04DX002 (ip), vehicle: Klucel (hydroxypropylcellulose) (HPC)): 113 % of control

S=c1[nH]c(N2CCOCC2)ncc1-c1ccccc1
T/C [4]: 99 % of control | T/C (dose: 200.0 mg/kg/injection, schedule: Q04DX002 (ip), vehicle: saline with Tween-80): 99 % of control

CC(=O)OC1CC2(C)C(c3ccoc3)CC3OC32C2(C)C(=O)C(O)=C3C(C)(C)C(=O)C=CC3(C)C12 (stereo not given)
T/C (dose: 3.0 mg/kg/injection, schedule: Q01DX009 (ip), vehicle: Klucel (hydroxypropylcellulose) (HPC)): 96 % of control | T/C (dose: 6.0 mg/kg/injection, schedule: Q01DX009 (ip), vehicle: Klucel (hydroxypropylcellulose) (HPC)): 100 % of control | T/C (dose: 12.0 mg/kg/injection, schedule: Q01DX009 (ip), vehicle: Klucel (hydroxypropylcellulose) (HPC)): 100 % of control | T/C (dose: 24.0 mg/kg/injection, schedule: Q01DX009 (ip), vehicle: Klucel (hydroxypropylcellulose) (HPC)): 99 % of control

COC1=CC(=O)C(C(c2ccc(OC)cc2)N2CCOCC2)=CC1=O (stereo not given)
T/C [5]: 109 % of control | T/C [6]: 109 % of control | T/C [7]: 101 % of control and 109 % of control

CCO/C([O-])=C(/C(=N/S(=O)(=O)c1ccc(C)cc1)SC)[n+]1ccccc1
T/C (dose: 25.0 mg/kg/injection, schedule: Q04DX002 (ip), vehicle: saline with Tween-80): 100 % of control | T/C (dose: 50.0 mg/kg/injection, schedule: Q04DX002 (ip), vehicle: saline with Tween-80): 99 % of control | T/C [4]: 99 % of control

O=C(NCCNC(=S)Nc1ccccc1)C(=O)NCCNC(=S)Nc1ccccc1
T/C (dose: 50.0 mg/kg/injection, schedule: Q01DX001 (ip), vehicle: Klucel (hydroxypropylcellulose) (HPC)): 91 % of control | T/C (dose: 100.0 mg/kg/injection, schedule: Q01DX001 (ip), vehicle: Klucel (hydroxypropylcellulose) (HPC)): 91 % of control | T/C (dose: 200.0 mg/kg/injection, schedule: Q01DX001 (ip), vehicle: Klucel (hydroxypropylcellulose) (HPC)): 91 % of control

O=Cc1ccc2c(c1)OCCOCCOCCOCCO2
T/C [1]: 100 % of control and 97 % of control | T/C [2]: 99 % of control and 111 % of control | T/C [3]: 105 % of control and 94 % of control | T/C (dose: 200.0 mg/kg/injection, schedule: Q01DX009 (ip), vehicle: saline): 102 % of control and 92 % of control

CCC1(C(=O)c2ccccc2)C(C(=O)OC)=NC(=S)N=C1C(=O)OC
T/C [8]: 99 % of control | T/C [9]: 90 % of control | T/C [10]: 100 % of control

O=[N+]([O-])c1ccc(Nc2ccccc2)c2nonc12
T/C [8]: 110 % of control | T/C [9]: 97 % of control | T/C [10]: 94 % of control

O=c1[nH]c(O)c(N=Nc2ccc([N+](=O)[O-])cc2[N+](=O)[O-])c(=O)[nH]1
T/C [11]: 113 % of control | T/C [12]: 102 % of control (2×) and 114 % of control | T/C [13]: 103 % of control and 112 % of control | T/C [14]: 102 % of control and 111 % of control

Cc1cnc(Sc2ncccc2[N+](=O)[O-])[nH]c1=O
T/C [15]: 107 % of control | T/C [16]: 93 % of control | T/C [17]: 97 % of control

CC1=C(C#N)C2(N)OC1(C)C1C(=O)C=CC(=O)C12 (stereo not given)
T/C [7]: 110 % of control | T/C (dose: 100.0 mg/kg/injection, schedule: Q01DX005 (ip), vehicle: saline with Tween-80): 107 % of control | T/C (dose: 200.0 mg/kg/injection, schedule: Q01DX005 (ip), vehicle: saline with Tween-80): 108 % of control

CC(=O)C(C#N)c1ccccn1 (stereo not given)
T/C [12]: 106 % of control | T/C [13]: 105 % of control | T/C [14]: 100 % of control

O=C(O)C(=O)O.[NH-]C1CCCC1[NH-].[Pt+2] (stereo not given)
T/C (dose: 12.5 mg/kg/injection, schedule: Q04DX002 (ip), vehicle: saline with Tween-80): 166 % of control | T/C (dose: 12.5 mg/kg/injection, schedule: Q04DX002 (ip), vehicle: saline): 176 % of control

[CH3][Sn]([CH3])([Cl])[CH2]CC[CH2][Sn]([CH3])([Cl])[Cl]
T/C (dose: 0.78 mg/kg/injection, schedule: Q01DX009 (ip), vehicle: saline): 99 % of control | T/C (dose: 1.56 mg/kg/injection, schedule: Q01DX009 (ip), vehicle: saline): 89 % of control | T/C (dose: 3.12 mg/kg/injection, schedule: Q01DX009 (ip), vehicle: saline): 89 % of control

C=CC[n+]1ccc(/C=N\NC(N)=S)c2ccccc21
T/C [12]: 116 % of control | T/C [13]: 110 % of control

O=C1c2c(Cl)ccc([N+](=O)[O-])c2C(=O)c2c(Cl)ccc([N+](=O)[O-])c21
T/C (dose: 12.5 mg/kg/injection, schedule: Q01DX005 (ip), vehicle: Klucel (hydroxypropylcellulose) (HPC)): 106 % of control | T/C (dose: 25.0 mg/kg/injection, schedule: Q01DX005 (ip), vehicle: Klucel (hydroxypropylcellulose) (HPC)): 104 % of control | T/C [15]: 99 % of control and 104 % of control | T/C [16]: 94 % of control | T/C [17]: 94 % of control

CN1CCN(C(=O)N2CCCc3ccccc32)CC1
T/C (dose: 100.0 mg/kg/injection, schedule: Q04DX003 (ip), vehicle: saline): 101 % of control | T/C (dose: 200.0 mg/kg/injection, schedule: Q04DX003 (ip), vehicle: saline): 99 % of control

O=C1c2ccccc2C(O)(C#Cc2ccccc2)c2c1oc1ccc3ccccc3c21 (stereo not given)
T/C [12]: 100 % of control | T/C [13]: 92 % of control | T/C [14]: 87 % of control

CCCCCCCCCCCCOc1ccccc1C(=O)O
T/C (dose: 6.25 mg/kg/injection, schedule: Q04DX003 (ip), vehicle: saline sonified): 100 % of control | T/C (dose: 12.5 mg/kg/injection, schedule: Q04DX003 (ip), vehicle: saline sonified): 100 % of control | T/C (dose: 25.0 mg/kg/injection, schedule: Q04DX003 (ip), vehicle: saline sonified): 100 % of control

COc1cc2oc(=O)cc(C)c2cc1N=C=S
T/C (dose: 50.0 mg/kg/injection, schedule: Q04DX003 (ip), vehicle: suspension in saline): 100 % of control | T/C (dose: 100.0 mg/kg/injection, schedule: Q04DX003 (ip), vehicle: suspension in saline): 100 % of control | T/C (dose: 200.0 mg/kg/injection, schedule: Q04DX003 (ip), vehicle: suspension in saline): 92 % of control

CNc1nc(NC)nc(N(C)C=O)n1
T/C [11]: 95 % of control | T/C [12]: 90 % of control

CN(Cc1ccccc1)N=NCc1ccccc1
T/C [5]: 103 % of control | T/C [6]: 115 % of control | T/C [7]: 154 % of control
